This is an account of results in publication PMC12754760, “Size-Controlled Mesoporous Silica Nanoparticles via Template Nanoarchitectonics from a Deferoxamine Derivative for Enhanced Blood–Brain Barrier Permeability and Neuroprotective Chelation Therapy” (ACS Applied Materials & Interfaces, 2025).

Counter-ions that a name gives are not always drawn.

For data set [1] the following is noted: in vivo; cited from earlier work.
Data set [2] in a line: Caco-2 monolayer drug transport (in vitro BBB model). The class given is in vitro ADME. The settings on record: human. As to the method: The preparation of the Caco-2 cell monolayer as an in vitro BBB model was performed as follows: Caco-2 cells were seeded at a density of 10.000 cells per well on a Millicell 96-well cell culture plate. The culture medium was replaced every 48 h. The formation of the monolayer was monitored by measuring the transepithelial electrical resistance (TEER) using an epithelial voltohmmeter (Millicell-ERS). After 21 days of culture, the Caco-2 cell monolayers were used for permeability experiments. All TEER values measured immediately before the experiments were above 300 Ω·cm^2, confirming the integrity of the monolayer.
Drug transport experiments were carried out following the previously published protocol. Briefly, after 21 days of culture, the medium was removed, and the cells were washed twice with Hank’s Balanced Salt Solution (HBSS) to eliminate any residual culture medium. Subsequently, the wells were refilled with HBSS and incubated at 37 °C for 30 min. After incubation, the HBSS was removed, and solutions containing the compound were added either to the filter well (apical side) or to the receiver plate (basolateral side), while HBSS without the compound was added to the corresponding opposite side. The final concentration of the compounds was 10^–4 M. The plates were then incubated at 37 °C for 2 h. At the end of the incubation period, the samples from both compartments were collected and analyzed by UV–vis spectroscopy. The apparent permeability coefficient (Papp), expressed in nm·s^–1, was calculated using the following equation: 1 Papp=[VA/(area×time)]×([drug]acceptor/[drug]receptor) where VA is the volume (mL) in the acceptor well, area is the surface area of the membrane (0.11 cm^2 of the well), time is the total transport time (7200 s), and [drug] is drug concentration measured by UV–vis spectroscopy.
On the technique in general: Caco-2 monolayers are a common model of the intestinal barrier.

The nature of data set [3]: Cell viability assay SH-SY5Y (MTT). The class given is cell-based. The settings on record: human, SH-SY5Y cells. As to the method:
Briefly, 10.000 BV-2 cells/well in 100 μL of culture medium were seeded into 96-well plates (transparent plate, clear bottom; Costar, Corning Inc.) and incubated overnight at 37 °C in 5% CO2. Stock solutions of the drug were preparate in DMSO, keeping it concentration <1% in the experiments. […] Stock solutions were prepared just before their use. Control wells with DMSO were used to evaluate the possible cytotoxicity of the solvent. After 72 h incubation, CCK-8 (10 μL) was added to each well, and after 3–4 h of incubation at 37 °C, the absorbance values at λ = 450 nm were determined on the Tecan Infinite 200 microplate reader. The cytotoxicity assay for SH-SY5Y was conducted by seeding cells at a density of 40.000 cells/well for 24 h in 96-well plate and incubated overnight. […] The plate was incubated for 24 h. After this time, MTT (10 μL) was added to each well, and after 3–4 h of incubation at 37 °C, the absorbance values at λ = 540 nm were determined on the Tecan Infinite 200 microplate reader.
Data were plotted as % cell viability, normalized vs untreated cells by using GraphPad Prism software version 7.05. Values are expressed as the mean ± SEM of at least three independent experiments. […]

By Papp A→B is commonly meant the apparent permeability from the apical to the basolateral side of a cell layer. Low readings indicate poor permeation, high ones ready permeation. For orientation: Papp B→A means how fast a substance crosses the layer from the basolateral side. One may read the viability as a read-out of living cells in per cent, often relative to untreated cells. Read a high viability as less harm to the cells. Turning to `CC(=O)N(O)CCCCCNC(=O)CCC(=O)N(O)CCCCCNC(=O)CCC(=O)N(O)CCCCCN` [DFO, Deferoxamine mesylate], the Plasma half-life in data set [1] was 20 to 30 min. In data set [2] (apical-to-basolateral, 10^–4 M, 2 h, 37 °C), this compound gave a Papp A→B at 2 h of 76.1 ×10⁻⁶ cm/s. Also, in data set [2] (basolateral-to-apical, 10^–4 M, 2 h, 37 °C), the apparent permeability from basolateral to apical (Papp B→A) at 2 h stood at 162 ×10⁻⁶ cm/s. Moreover, the efflux ratio at 2 h in data set [2] (read-out: BA/AB permeability ratio) worked out at 2.13. In data set [3], the viability at 24 h, 100 µM was around 100%.
